According to the supplement of paper PMC13380429:
± gives the standard deviation of the averaged measurements.

Experiments:
Conditions in all cases: 72 h
[1] = system: Caco-2; assay: cell viability relative to DMSO; higher = less toxic
[2] = system: Vero E6; assay: as above
[3] = system: Calu-3; assay: as above
[4] = system: HepG2; assay: as above
[5] = system: U2OS; assay: as above
[6] = system: Caco-2; assay: relative viability EC50 (midpoint between 100% and the lowest measured viability); higher = less toxic
[7] = system: Vero E6; assay: as above
[8] = system: Calu-3; assay: as above
[9] = system: HepG2; assay: as above
[10] = system: U2OS; assay: as above
[11] = system: Caco-2; assay: drug sensitivity score (DSS) for viability; higher = more toxic; extreme values may be limits of the assay
[12] = system: Vero E6; assay: as above
[13] = system: Calu-3; assay: as above
[14] = system: HepG2; assay: as above
[15] = system: U2OS; assay: as above

Row | SMILES | cell viability ([1]; 1 nM) [%] | cell viability ([1]; 10 nM) [%] | cell viability ([1]; 100 nM) [%] | cell viability ([1]; 1000 nM) [%] | cell viability ([1]; 10000 nM) [%] | cell viability ([2]; 1 nM) [%] | cell viability ([2]; 10 nM) [%] | cell viability ([2]; 100 nM) [%] | cell viability ([2]; 1000 nM) [%] | cell viability ([2]; 10000 nM) [%] | cell viability ([3]; 1 nM) [%] | cell viability ([3]; 10 nM) [%] | cell viability ([3]; 100 nM) [%] | cell viability ([3]; 1000 nM) [%] | cell viability ([3]; 10000 nM) [%] | cell viability ([4]; 1 nM) [%] | cell viability ([4]; 10 nM) [%] | cell viability ([4]; 100 nM) [%] | cell viability ([4]; 1000 nM) [%] | cell viability ([4]; 10000 nM) [%] | cell viability ([5]; 1 nM) [%] | cell viability ([5]; 10 nM) [%] | cell viability ([5]; 100 nM) [%] | cell viability ([5]; 1000 nM) [%] | cell viability ([5]; 10000 nM) [%] | relative viability EC50 [6] [µM] | relative viability EC50 [7] [µM] | relative viability EC50 [8] [µM] | relative viability EC50 [9] [µM] | relative viability EC50 [10] [µM] | drug sensitivity score [11] | drug sensitivity score [12] | drug sensitivity score [13] | drug sensitivity score [14] | drug sensitivity score [15]
1 | CCC(C)(Oc1ccc(C2(c3ccc(OC(C)(CC)C(=O)O)cc3)CCCCC2)cc1)C(=O)O (stereo not given) [clinofibrate] | 103 | 98.2 | 99 | 105 | 104 | 96.4 | 101 | 96 | 99.2 | 107 | 96.1 | 93.7 | 99.9 | 102 | 98.9 | 93.9 | 106 | 92.6 | 120 | 108 | 96.9 | 98.3 | 102 | 95.6 | 94.9 | > 10 | > 10 | > 10 | > 10 | > 10 | 0 | 0 | 0 | 0 | 0
2 | COC(=O)[C@H](c1ccccc1Cl)N1CCc2sccc2C1 [clopidogrel] | 91.9 | 91.8 | 95.1 | 95 | 88.2 | 105 | 86.7 | 104 | 104 | 108 | 89.9 | 104 | 96.9 | 96.7 | 101 | 97.7 | 97.7 | 98.4 | 112 | 101 | 94.8 | 99.3 | 95.8 | 102 | 97.6 | > 10 | > 10 | > 10 | > 10 | > 10 | 0 | 0 | 0 | 0 | 0
3 | CCC(C)CCCC(=O)N[C@@H](CCN)C(=O)N[C@H](C(=O)N[C@@H](CCN)C(=O)N[C@H]1CCNC(=O)[C@H]([C@@H](C)O)NC(=O)[C@H](CCN)NC(=O)[C@H](CCN)NC(=O)[C@H](CC(C)C)NC(=O)[C@@H](CC(C)C)NC(=O)[C@H](CCN)NC1=O)[C@@H](C)O (stereo not given in full) [colistin] | 94.7 ± 6.2 | 98.4 ± 1.8 | 101 ± 7.6 | 104 ± 1.4 | 101 ± 10 | 101 ± 2.5 | 101 ± 2.5 | 104 ± 2.5 | 98.5 ± 1.2 | 103 ± 1.6 | 100 ± 4 | 93.4 ± 4.2 | 94.3 ± 4.8 | 98 ± 15 | 85.4 ± 7.2 | 94 ± 1.7 | 105 ± 2 | 99.3 ± 11 | 103 ± 2 | 97.5 ± 8.1 | 99.7 ± 1.4 | 100 ± 2 | 97.8 ± 0.14 | 102.75 ± 0.071 | 99.2 ± 1.1 | > 10 | > 10 | > 10 | > 10 | > 10 | 0 | 0 | 0.95 ± 1.3 | 0 | 0
4 | O=C(O)c1ccc(OCCn2ccnc2)cc1 [dazoxiben] | 108 | 92.7 | 114 | 98.2 | 101 | 96.3 | 101 | 96.9 | 103 | 110 | 101 | 97.7 | 103 | 102 | 97.7 | 104 | 103 | 84.5 | 102 | 89.8 | 99.8 | 96.5 | 103 | 91.4 | 103 | > 10 | > 10 | > 10 | > 10 | > 10 | 0 | 0 | 0 | 0 | 0
5 | COc1ccc2c(c1)[C@]13CCCC[C@@H]1[C@H](C2)N(C)CC3 [dextromethorphan] | 98.1 | 98.9 | 104 | 97.7 | 97.7 | 92.1 | 100 | 97.3 | 95.9 | 104 | 95.6 | 106 | 89.6 | 99.3 | 102 | 111 | 108 | 95.8 | 103 | 109 | 97.1 | 98.3 | 99.7 | 95.3 | 97.1 | > 10 | > 10 | > 10 | > 10 | > 10 | 0 | 0 | 0 | 0 | 0
